Tested on: purified human Hsp90
Assay: Binding Assay: fluorescence polarization with BODIPY-labeled geldanamycin
Settings: 5 μM compound, BODIPY-GM 10 nM, Hsp90 30 nM
How it was run: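 Fluorescence polarization competition with BODIPY-geldanamycin (10 nM final) and human Hsp90 (30 nM final) in HEPES-KOH pH 7.3 buffer with molybdate, NP-40, DTT; 2% DMSO, overnight at room temperature. Read 485/530 nm; percent inhibition from mP normalized to DMSO controls, fluorescent-compound points excluded.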

| Structure (SMILES) | % Inhibition at 5 μM Compound Concentration [%] |
| --- | --- |
| COc1ccc(OC)c(Sc2nc3c(N)ncn(CCn4ccnc4)c-3n2)c1 [Example 336, 8-[(2,5-Dimethoxyphenyl)thio]-3-[2-(1H-imidazol-1-yl)ethyl]-3H-purin-6-amine] | 13.0 |
| CC(C)N1CCC(CCn2c(Sc3cc4c(cc3Br)OCO4)nc3ncnc(N)c32)CC1 [Example 583, 8-[(6-Bromo-1,3-benzodioxol-5-yl)thio]-7-[2-(1-isopropylpiperidin-4-yl)ethyl]-7 H-purin-6-amine] | 55.00 |
| COc1ccc(OC)c(Sc2nc3c(N)ncn(CCc4ccc(N(C)C)cc4)c-3n2)c1 [Example 186, 8-(2,5-dimethoxy-phenylsulfanyl)-3-[2-(4-dimethylamino-phenyl)-ethyl]-3H-purin-6-ylamine] | 0 |
| COc1ccc(OC)c(Sc2nc3c(N)ncn(C4Cc5ccccc5C4O)c-3n2)c1 (stereo not drawn) [Example 236, 2-{6-Amino-8-[(2,5-dimethoxyphenyl)thio]-3H-purin-3-yl}indan-1-ol] | 0 |

Results, then the compound that gave them:

| % Inhibition at 5 μM Compound Concentration [%] | Structure (SMILES) |
| --- | --- |
| 9 | Nc1ncn(CC(O)c2ccc(Cl)cc2Cl)c2nc(Sc3cc4c(cc3Br)OCO4)nc1-2 (stereo not drawn) [Example 178, 2-[6-amino-8-(6-bromo-benzo[1,3]dioxol-5-ylsulfanyl)-purin-3-yl]-1-(2,4-dichloro-phenyl)-ethanol] |
| 35 | CN1CCCC1CCn1cnc(N)c2nc(Sc3cc4c(cc3Br)OCO4)nc1-2 (stereo not drawn) [Example 352, 8-[(6-Bromo-1,3-benzodioxol-5-yl)thio]-3-[2-(1-methylpyrrolidin-2-yl)ethyl]-3H-purin-6-amine] |
| 7.0 | Nc1ncn(CCn2cnc3ccccc3c2=O)c2nc(Sc3cc4c(cc3Br)OCO4)nc1-2 [Example 270, 3-(2-{6-Amino-8-[(6-bromo-1,3-benzodioxol-5-yl)thio]-3H-purin-3-yl}ethyl)quinazolin-4(3 H)-one] |
| 28 | Nc1ncn(CCC2CCCN2C(=O)OCc2ccccc2)c2nc(Sc3cc4c(cc3Br)OCO4)nc1-2 (stereo not drawn) [Example 421, Benzyl 2-(2-{6-amino-8-[(6-bromo-1,3-benzodioxol-5-yl)thio]-3H-purin-3-yl}ethyl)pyrrolidine-1-carboxylate] |
| 0 | Nc1ncn(CCc2ccccc2Br)c2nc(Sc3cc4c(cc3Br)OCO4)nc1-2 [Example 150, 8-(6-bromo-benzo[1,3]dioxol-5-ylsulfanyl)-3-[2-(2-bromo-phenyl)-ethyl]-3H-purin-6-ylamine] |
| 36 | CCOC(=O)CNC(=O)N1CCC(CCn2cnc(N)c3nc(Sc4cc5c(cc4Br)OCO5)nc2-3)CC1 [Example 443, Ethyl N-{[4-(2-{6-amino-8-[(6-bromo-1,3-benzodioxol-5-yl)thio]-3H-purin-3-yl}ethyl)piperidin-1-yl]carbonyl}glycinate] |
| 31.00 | Nc1ncn(CCC2CCN(C=O)CC2)c2nc(Sc3cc4c(cc3Br)OCO4)nc1-2 [Example 602, 4-(2-{6-Amino-8-[(6-bromo-1,3-benzodioxol-5-yl)thio]-3 H-purin-3-yl}ethyl)piperidine-1-carbaldehyde] |

Same assay, conditions: BODIPY-GM 10 nM, Hsp90 30 nM

| Structure (SMILES) | IC50 [nM] |
| --- | --- |
| Nc1ncnc2c1nc(Sc1cc3c(cc1Br)OCO3)n2CC[C@@H]1CCNC1 [Example 484, 8-[(6-Bromo-1,3-benzodioxol-5-yl)thio]-9-{2-[(3S)-pyrrolidin-3-yl]ethyl}-9 H-purin-6-amine] | 600 |
| COc1ccc(OC)c(Sc2nc3c(N)ncnc3n2CCc2ccc(S(=O)(=O)NC(C)(C)C)cc2)c1 [Example 275, 4-(2-{6-Amino-8-[(2,5-dimethoxyphenyl)thio]-9H-purin-9-yl}ethyl)-N-(tert-butyl)benzenesulfonamide] | > 3000 |
| C#CCN1CCC(CCn2c(Sc3cc4c(cc3Br)OCO4)nc3c(N)ncnc32)CC1 [Example 625, 8-[(6-Bromo-1,3-benzodioxol-5-yl)thio]-9-[2-(1-prop-2-yn-1-ylpiperidin-4-yl)ethyl]-9 H-purin-6-amine] | 110 |
| CCC(Cn1c(Sc2cc(OC)ccc2OC)nc2c(N)ncnc21)c1ccccc1 (stereo not drawn) [Example 285, 8-[(2,5-Dimethoxyphenyl)thio]-9-(2-phenylbutyl)-9H-purin-6-amine] | 1300 |
| COc1ccc(Sc2nc3c(N)ncnc3n2CCc2ccccc2)c(OC)c1 [Example 15, 8-(2,4-Dimethoxy-phenylsulfanyl)-9-phenethyl-9H-purin-6-ylamine] | 6500 |
| COc1cc(Sc2nc3c(N)ncnc3n2CCc2ccccc2)c(Cl)c(OC)c1OC [Example 286, 8-[(2-Chloro-3,4,5-trimethoxyphenyl)thio]-9-(2-phenylethyl)-9H-purin-6-amine] | 3000 |
| Nc1ncnc2c1nc(Sc1ccc3occc3c1)n2CCC1CCN(C=O)CC1 [Example 539, 4-{2-[6-Amino-8-(1-benzofuran-5-ylthio)-9 H-purin-9-yl]ethyl}piperidine-1-carbaldehyde] | > 5000 |
| COc1ccc(OC)c(Sc2nc3c(N)ncnc3n2CCc2ccncc2)c1 [Example 134, 8-(2,5-Dimethoxy-phenylsulfanyl)-9-(2-pyridin-4-yl-ethyl)-9H-purin-6-ylamine] | > 3000 |
| Nc1ncnc2c1nc(Sc1ccc3c(c1)OC(F)(F)O3)n2CCc1ccccc1Cl [Example 294, 9-[2-(2-Chlorophenyl)ethyl]-8-[(2,2-difluoro-1,3-benzodioxol-5-yl)thio]-9H-purin-6-amine] | > 25000 |
| Nc1ncnc2c1nc(Sc1cccc(OC(F)F)c1)n2CCc1c(Cl)cccc1Cl [Example 253, 9-[2-(2,6-Dichlorophenyl)ethyl]-8-{[3-(difluoromethoxy)phenyl]thio}-9H-purin-6-amine] | > 8000 |
| Nc1ncnc2c1nc(Sc1cc3c(cc1Br)OCO3)n2CCC1CCN(C(=O)C2CCCC2)CC1 [Example 510, 8-[(6-Bromo-1,3-benzodioxol-5-yl)thio]-9-{2-[1-(cyclopentylcarbonyl)piperidin-4-yl]ethyl}-9 H-purin-6-amine] | 250 |
| CC(C)(C)OC(=O)N[C@H]1CC[C@H](CCn2c(Sc3cc4c(cc3Br)OCO4)nc3c(N)ncnc32)CC1 [Example 455, tert-Butyl [trans-4-(2-{6-amino-8-[(6-bromo-1,3-benzodioxol-5-yl)thio]-9H-purin-9-yl}ethyl)cyclohexyl]carbamate] | 60 |
| CC(=O)N1CCN(CCn2c(Sc3cc4c(cc3Br)OCO4)nc3c(N)ncnc32)CC1 [Example 382, 9-[2-(4-Acetylpiperazin-1-yl)ethyl]-8-[(6-bromo-1,3-benzodioxol-5-yl)thio]-9H-purin-6-amine] | 140 |
| Nc1ncnc2c1nc(Sc1cc3c(cc1Br)OCO3)n2CCC1CCCCN1CC1CCCCC1 (stereo not drawn) [Example 588, 8-[(6-Bromo-1,3-benzodioxol-5-yl)thio]-9-{2-[1-(cyclohexylmethyl)piperidin-2-yl]ethyl}-9 H-purin-6-amine] | > 2000 |
| CCOC(=O)N1CCCCC1CCn1c(Sc2cc(OC)ccc2OC)nc2c(N)ncnc21 (stereo not drawn) [Example 337, 2-{2-[6-Amino-8-(2,5-dimethoxy-phenylsulfanyl)-purin-9-yl]-ethyl}-piperidine-1-carboxylic acid ethyl ester] | > 8000 |
| CC(C)(C)OC(=O)NC(CCn1c(Sc2cc3c(cc2Br)OCO3)nc2c(N)ncnc21)C1CCCCC1 (stereo not drawn) [Example 670, tert-Butyl(3-{6-amino-8-[(6-bromo-1,3-benzodioxol-5-yl)thio]-9H-purin-9-yl}-1-cyclohexylpropyl)carbamate] | 1600 |
| Nc1ncnc2c1nc(Sc1cc(OC(F)(F)F)ccc1Cl)n2CCc1ccccc1 [Example 228, 8-{[2-Chloro-5-(trifluoromethoxy)phenyl]thio}-9-(2-phenylethyl)-9H-purin-6-amine] | > 8000 |

Now from value to compound:

| IC50 [nM] | Structure (SMILES) |
| --- | --- |
| > 5000 | CC(=O)N1CCC(CCn2cnc(N)c3nc(Sc4cc5c(cc4C#N)OCO5)nc2-3)CC1 [Example 621, 6-({3-[2-(1-Acetylpiperidin-4-yl)ethyl]-6-amino-3 H-purin-8-yl}thio)-1,3-benzodioxole-5-carbonitrile] |
| 1400 | Nc1ncnc2c1nc(Sc1cc3c(cc1Br)OCO3)n2CCN1CCCC1=O [Example 584, 1-(2-{6-Amino-8-[(6-bromo-1,3-benzodioxol-5-yl)thio]-9 H-purin-9-yl}ethyl)pyrrolidin-2-one] |
| 110 | CCCN1CCCCC1CCn1c(Sc2cc3c(cc2Br)OCO3)nc2c(N)ncnc21 (stereo not drawn) [Example 386, 8-[(6-Bromo-1,3-benzodioxol-5-yl)thio]-9-[2-(1-propylpiperidin-2-yl)ethyl]-9H-purin-6-amine] |
| > 25000 | Nc1ncnc2c1nc(Sc1cc3c(cc1Br)OCO3)n2CCc1ccc2ccccc2c1 [Example 302, 8-[(6-Bromo-1,3-benzodioxol-5-yl)thio]-9-[2-(2-naphthyl)ethyl]-9H-purin-6-amine] |
| 300 | CC(C)C(Cn1c(Sc2cc3c(cc2Br)OCO3)nc2c(N)ncnc21)c1ccccc1 (stereo not drawn) [Example 126, 8-(6-Bromo-benzo[1,3]dioxol-5-ylsulfanyl)-9-(3-methyl-2-phenyl-butyl)-9H-purin-6-ylamine] |
| 1200 | CC(C)(C)OC(=O)N1CCC[C@@H](CCn2c(Sc3cc4c(cc3Br)OCO4)nc3c(N)ncnc32)C1 [Example 391, tert-Butyl (3S)-3-(2-{6-amino-8-[(6-bromo-1,3-benzodioxol-5-yl)thio]-9H-purin-9-yl}ethyl)piperidine-1-carboxylate] |
| > 2000 | Nc1ncnc2c1nc(Sc1cc3c(cc1Br)OCO3)n2CCC1CCCCN1CC(=O)O (stereo not drawn) [Example 650, [2-(2-{6-amino-8-[(6-bromo-1,3-benzodioxol-5-yl)thio]-9H-purin-9-yl}ethyl)piperidin-1-yl]acetic acid] |
| 500 | COc1ccc(CN2CCCCC2CCn2c(Sc3cc4c(cc3Br)OCO4)nc3c(N)ncnc32)cc1 (stereo not drawn) [Example 590, 8-[(6-Bromo-1,3-benzodioxol-5-yl)thio]-9-{2-[1-(4-methoxybenzyl)piperidin-2-yl]ethyl}-9 H-purin-6-amine] |
